pEC50: −log10 of the molar value.

In one data set the test system is JCV Mad-4. In words: Extracellular JCV load in JCV-infected astrocyte cells (qPCR). The note with it: in the presence of CMX001. Type of data set: cell-based. The method, then:
FIG. 17 illustrates the effect of increasing concentrations of CMX001 on extracellular viral load in astrocytes. Supernatants from JCV-infected PDA cells treated with indicated concentrations of CMX001 were harvested at indicated timepoints after infection and JCV load measured by qPCR. Data are presented as JCV load in log geq/ml. COS-7 or astrocyte cells were infected at a confluence of 60-70% with JCV(Mad-4) at an estimated TCID50 of 0.2. After 2 h incubation at 37° C., supernatants were replaced with fresh medium without or with increasing concentration CMX001. […] JCV loads were quantified after DNA extraction from 100 ul cell culture supernatants and the Corbett X-tractor Gene and the Corbett VX reagents (Qiagen, Hombrechtikon, Switzerland). The real-time PCR protocol for detection of JCV DNA samples targets the JCV large T coding sequence and has been described elsewhere (5). To examine the effect of CMX001 on JCV progeny levels over time, supernatants of treated and untreated cells were harvested at the indicated timepoints. To determine input virus samples were taken at 1 d.p.i. In the course of the infection for untreated cells, the extracellular JCV load changes approximately 1 log over the period of 7 days (3.22×107 vs 2.30×108 geq/ml).
(Real-time PCR tracks product formation cycle by cycle.)

The subject of the next data set is EBV. Kind of data set: CMX001 in human patients with EBV-associated PTLD. The data set is classed as in vivo. The note with it: for EBV viral load: heart transplant recipient. An excerpt: The first patient is a patient with a history of sickle cell anemia developed EBV-associated intracranial post-transplant lymphoproliferative disorder (PTLD). EBV was positive in the plasma (7 Dec. and 14 Dec. 2010) and brain biopsies were consistent with PTLD. In early December, the patient presented with a 3 day history of persistent headache, nausea, vomiting, and diarrhea. […] The patient was admitted to PICU. High intracranial pressure, repetitive seizures associated with apnea led to intubation and emergency request for CMX001. The use of CMX001 in this patient with EBV-associated PTLD is ongoing since […].
The second patient was a heart transplant recipient with EBV-associated PTLD. The patient acquired a primary EBV infection post-operatively. […] The clinical condition continued to destabilize with what was presumed to be EBV-associated encephalitis with EBV detected in the CSF, clinical and EEG-correlated seizure activity and decreased responsiveness and changes in mental status. At the time of request for CMX001, the patient was on mechanical ventilation, had evidence of both pneumonia and PTLD of their lungs, evidence of seizure activity with clinical criteria for encephalopathy being present. The patient received their first dose of CMX001, 20 mg (approximately 3.3 mg/kg) on 3 Mar. 2010, and their second dose on 7 Mar. […] The patient continued to show evidence of progressive neurologic injury. The parents withdrew support on the day following their second dose of CMX001.

The test system of another data set is JC virus. Kind of data set: Antiviral activity against JC virus in COS-7 cells (qPCR, 5 days). Type of data set: cell-based, JCV(Mad-4). The protocol:
In order to test the ability of CMX001 to inhibit JC virus, COS-7 cells were infected with JCV(Mad-4) at an estimated TCID50 of 0.2. After 2 h incubation at 37° C., supernatants were replaced with fresh medium without or with increasing amounts of CMX001 and incubated for 5 days. JC virus was quantified by qPCR after DNA extraction.

[1] abbreviates: JC polyomavirus, 120 h, JCV(Mad-4), 5 days.

By pEC50 is commonly meant the EC50 on a negative log10 scale, so that one unit is a factor of ten. Read a high pEC50 as a small EC50. The EC90 is the concentration needed for an effect of 90%. As for `CCCCCCCCCCCCCCCCOCCCOP(=O)(O)CO[C@H](CO)Cn1ccc(N)nc1=O` [CMX001], the “change in JCV load over 7 days” value in the data set on JCV Mad-4 is “less than 1 log”. In addition, the EBV viral load with EBV (3 Mar. 2010 (day of first dose, 20 mg)) was 267,338 copies/mL; in the data set with EBV (7 Mar. 2010 (day of second dose)), 47,427 copies/mL. Also, in the data set on EBV (patient on CMX001), the “EBV in the plasma” value was “remains negative”. Further, the tolerability entry with EBV (patient, 4 mg/kg twice weekly) is reported as “tolerated CMX001 well”. The clinical outcome in the data set with EBV (patient, intracranial PTLD, 4 mg/kg twice weekly) is “clinical improvement of their signs and symptoms of disease as well as stabilization if not reduction of their intracranial mass”. This molecule also showed a negative-log EC50 (pEC50) in the data set on JC virus (setting [1]) of 6.82. In the data set on JC virus (setting [1]), this molecule gave a 90% effect concentration (EC90) of 600 nM. In the data set on JC virus (in words), the “activity against JC virus” value is recorded as “active”.

For the origin of these results see patent publication US20120164104A1, “Composition and Methods of Treating Viral Infections and Viral Induced Tumors” (Chimerix, Inc., priority 2009, published 2012).
